US9359361B2, “Immune system modulators” (JANUS BIOTHERAPEUTICS, INC., priority 2011, dated 2016)

Biological target: human TLR9 (hTLR9) (Homo sapiens (Human), UniProt Q9NR96)
Experiment: TLR9 antagonist assay in HEK-Blue-hTLR9 cells (NF-kB/AP-1 SEAP reporter)
Assay type: cell-based
Conditions: hTLR9 agonist (such as ODN 2006, 1 uM), SEAP readout at 620 nm, read-out: hTLR9 antagonism IC50
Description: TLR9 Antagonist Assay HEK-Blue™-hTLR9 cells were obtained from InvivoGen Inc. and used to determine test compound antagonism of human TLR9 (hTLR9) driven responses. HEK-Blue™-hTLR9 cells are designed for studying the stimulation of human TLR9 by monitoring the activation of NF-kB. As described by the manufacturer, “HEK-Blue™-hTLR9 cells were obtained by co-transfection of the hTLR9 gene and an optimized secreted embryonic alkaline phosphatase (SEAP) reporter gene into HEK293 cells. The SEAP reporter gene is placed under the control of the IFN-b minimal promoter fused to five NF-kB and AP-1 binding sites. Stimulation with a TLR9 ligand activates NF-kB and AP-1 which induces the production of SEAP. Levels of SEAP can be easily determined with QUANTI-Blue™ a detection medium that turns purple/blue in the presence of alkaline phosphatase”. TLR9 Antagonism Assay […] Day 2 […] Day 3 […] Calculation of IC50 The concentration dependent inhibition of hTLR9 dependent SEAP production was expressed as the concentration of compound which produced half the maximal level of SEAP induced by the hTLR agonist alone.

human TLR9 (hTLR9), sequence (Q9NR96 26-1032): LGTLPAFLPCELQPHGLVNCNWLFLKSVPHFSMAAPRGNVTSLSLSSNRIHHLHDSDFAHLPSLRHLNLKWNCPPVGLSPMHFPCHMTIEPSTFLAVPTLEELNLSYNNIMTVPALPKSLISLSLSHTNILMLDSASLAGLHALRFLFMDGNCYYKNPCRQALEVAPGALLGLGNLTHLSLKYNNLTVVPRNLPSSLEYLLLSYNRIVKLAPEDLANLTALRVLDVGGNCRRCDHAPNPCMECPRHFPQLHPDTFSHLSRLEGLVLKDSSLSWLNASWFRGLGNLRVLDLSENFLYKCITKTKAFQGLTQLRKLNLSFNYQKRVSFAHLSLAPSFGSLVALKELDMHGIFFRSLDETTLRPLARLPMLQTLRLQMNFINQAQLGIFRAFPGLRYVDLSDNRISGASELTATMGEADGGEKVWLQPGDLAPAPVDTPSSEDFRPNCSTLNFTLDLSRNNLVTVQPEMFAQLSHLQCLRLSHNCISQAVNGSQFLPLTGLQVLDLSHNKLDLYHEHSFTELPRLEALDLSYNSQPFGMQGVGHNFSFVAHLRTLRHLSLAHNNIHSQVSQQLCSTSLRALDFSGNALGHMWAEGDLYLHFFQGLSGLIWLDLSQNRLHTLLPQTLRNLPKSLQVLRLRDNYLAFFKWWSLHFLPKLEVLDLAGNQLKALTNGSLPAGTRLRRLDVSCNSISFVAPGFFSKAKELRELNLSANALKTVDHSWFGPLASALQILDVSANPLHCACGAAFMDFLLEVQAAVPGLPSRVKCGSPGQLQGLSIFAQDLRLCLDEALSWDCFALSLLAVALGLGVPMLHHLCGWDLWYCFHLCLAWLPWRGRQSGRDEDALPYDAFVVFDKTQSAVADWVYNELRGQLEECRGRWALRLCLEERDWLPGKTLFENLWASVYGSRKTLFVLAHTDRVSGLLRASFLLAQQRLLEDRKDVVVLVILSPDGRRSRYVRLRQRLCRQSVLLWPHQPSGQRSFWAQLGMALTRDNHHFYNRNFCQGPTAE

c1ccc(-c2nc(NCCN3CCOCC3)c3nc(NCCN4CCOCC4)c(N4CCCC4)nc3n2)cc1 [Example 66]
IC50: 181 nM
